Consider two compounds from PMC4718913, “Characterization of a novel oxidase from Thelonectria discophora SANK 18292 involved in nectrisine biosynthesis” (AMB Express, 2016).

Experiment [1] deals with T1, NecC (Thelonectria discophora, UniProt A0A0S3Q283).
T1 sequence (A0A0S3Q283 1-558): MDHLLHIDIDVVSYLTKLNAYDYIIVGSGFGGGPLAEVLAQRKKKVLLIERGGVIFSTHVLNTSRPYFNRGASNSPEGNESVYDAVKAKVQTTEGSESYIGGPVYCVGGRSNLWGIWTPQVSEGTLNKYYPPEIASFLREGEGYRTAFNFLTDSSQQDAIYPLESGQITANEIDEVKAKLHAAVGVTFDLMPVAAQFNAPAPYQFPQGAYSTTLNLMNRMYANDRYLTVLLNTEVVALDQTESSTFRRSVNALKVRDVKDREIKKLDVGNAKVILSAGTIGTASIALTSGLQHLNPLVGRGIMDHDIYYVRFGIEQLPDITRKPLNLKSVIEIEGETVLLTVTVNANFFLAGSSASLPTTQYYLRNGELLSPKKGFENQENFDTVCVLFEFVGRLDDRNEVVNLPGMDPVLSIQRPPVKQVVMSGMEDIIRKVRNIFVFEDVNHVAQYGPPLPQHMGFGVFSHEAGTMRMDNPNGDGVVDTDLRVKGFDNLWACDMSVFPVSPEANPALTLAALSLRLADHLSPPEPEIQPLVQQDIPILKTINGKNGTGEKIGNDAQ
Kind of experiment: H2O2 production, ABTS/peroxidase coupled, absorbance at […] nm. It counts as biochemical. More on the design: native, purified from mycelium (ammonium sulfate, DEAE); FAD-like flavin; homo-oligomers about 8 mer to 16 mer. The conditions noted are these: pH 7.0, 30 °C.

The target of experiment [2] is T1, NecC. Kind of experiment: LC-MS of nectrisine formed (NaBH4 reduction, NBD-F label). It counts as biochemical. More on the design: full-length cDNA in pET21b, C-terminal His tag, E. coli BL21 (DE3), Ni column; about 62 kDa. The settings on record: 15 °C, 12.5 h.

Take `N[C@H](CO)[C@@H](O)[C@H](O)CO` [compound 2, 4-amino-4-deoxyarabinitol]: on NecC [1] (1 mM substrate, O2 as acceptor), the “H2O2 production, ABTS/peroxidase coupled, absorbance at 420 nm” value was 4-amino-4-deoxyarabinitol was the preferred substrate. Besides, the “LC-MS of nectrisine formed (NaBH4 reduction, NBD-F label)” value at NecC [2] is listed as “the recombinant NecC had 4-amino-4-deoxyarabinitol oxidase activity”.
Turning to `OC[C@@H](O)[C@H](O)[C@@H](O)CO` [xylitol], the “H2O2 production, ABTS/peroxidase coupled, absorbance at 420 nm” value on NecC [1] (xylitol in place of 4-amino-4-deoxyarabinitol) is given as “NecC also exhibited activity against some sugar alcohols”.
